Drawing on patent US8697694B2, “Substituted pyridine and pyrimidine derivatives and their use in treating viral infections” (priority 2008, dated 2014), this text covers EC90 for 16 molecules.

Usually EC90 stands for the concentration at which the effect reaches the 90% level.

The first experiment has as its system HCV replicon cells. Description: Cell-based HCV replicon assay (replicon RNA level by real time PCR, Taqman). Particulars: Hepatitis C virus, 72 h, HCV replicon cells, replicon RNA level by real time PCR (Taqman), day 3; calculated EC90; read-out: EC90 (μM) range. An outline of the steps:
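Readout: ΔCT between NS5B replicon RNA and GAPDH by real-time RT-PCR in lysates harvested on day 3, fitted sigmoidally; EC50 at ΔCT=1, EC90 at ΔCT=3.2. Compounds tested at ten 2-fold dilutions from 25 μM to 1 μM start, 10% FBS, 0.5% DMSO.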
On to `Cc1nc(NCC(O)c2ccccc2)nc(N[C@@H]2C[C@H](CO)[C@@H](O)[C@H]2O)c1-c1nc2ccccc2s1` (stereo partly shown) [Example 1919], for which the EC90 was 0.5 to 5 µM.

On to `Cc1nc(NCC(F)(F)F)nc(N[C@@H]2C[C@H](CO)[C@@H](O)[C@H]2O)c1-c1nc2cnccc2o1` [Example 2001], for which the 90% effect concentration (EC90) is 0.5 to 5 µM.

`Cc1nc(NCC(F)(F)F)nc(N[C@@H]2C[C@H](CO)[C@H]3OC(C)(C)O[C@H]32)c1-c1nc2cnccc2o1` [Example 2002]: the EC90 is above 5 µM.

As for `Cc1nc(NCC2CC2)nc(N[C@@H]2C[C@H](CO)[C@@H](O)[C@H]2O)c1-c1nc2cnccc2o1` [Example 2003], the EC90 was 0.5 to 5 µM.

On to `Cc1ccc([C@H](Nc2nc(C)c(-c3nc4ccccc4s3)c(N[C@@H]3C[C@H](CO)[C@H]4OC(C)(C)O[C@H]43)n2)C(F)(F)F)cc1` [Example 2004], for which the concentration for an effect of 90% (EC90) is 0.5 to 5 µM.

`Cc1ccc([C@H](Nc2nc(C)c(-c3nc4ccccc4s3)c(N[C@@H]3C[C@H](CO)[C@@H](O)[C@H]3O)n2)C(F)(F)F)cc1` [Example 2005]: the EC90 is 0.5 to 5 µM.

On to `Cc1nc(NCC(F)(F)F)nc(N[C@@H]2C[C@H](CO)[C@H]3OC(C)(C)O[C@H]32)c1-c1nc2ncccc2o1` [Example 2006], for which the EC90 is 0.5 to 5 µM.

Take `Cc1ccc(CNc2nc(C)c(-c3nc4ncccc4o3)c(N[C@@H]3C[C@H](CO)[C@@H](O)[C@H]3O)n2)cc1` [Example 2007]: the EC90 was below 0.5 µM.

As to `Cc1nc(NCC(F)(F)F)nc(N[C@@H]2C[C@H](CO)[C@@H](O)[C@H]2O)c1-c1nc2ncccc2o1` [Example 2008], the concentration for an effect of 90% (EC90) is 0.5 to 5 µM.

For `COc1cc(CCNc2nc(C)c(-c3nc4cnccc4s3)c(N[C@@H]3C[C@H](CO)[C@H]4OC(C)(C)O[C@H]43)n2)cc(OC)c1` [Example 2009], the 90% effect concentration (EC90) was below 0.5 µM.

As to `COc1cc(CCNc2nc(C)c(-c3nc4cnccc4s3)c(N[C@@H]3C[C@H](CO)[C@@H](O)[C@H]3O)n2)cc(OC)c1` [Example 2010], the EC90 is below 0.5 µM.

In the case of `Cc1nc(NCCc2ccc(C(C)(C)C)cc2)nc(N[C@@H]2C[C@H](CO)[C@H]3OC(C)(C)O[C@H]32)c1-c1nc2cnccc2s1` [Example 2011], the EC90 was above 5 µM.

Regarding `Cc1nc(NCCc2ccc(C(C)(C)C)cc2)nc(N[C@@H]2C[C@H](CO)[C@@H](O)[C@H]2O)c1-c1nc2cnccc2s1` [Example 2012], the EC90 was below 0.5 µM.

For `Cc1nc(N[C@@H](C2CC2)C(F)(F)F)nc(N[C@@H]2C[C@H](CO)[C@@H](O)[C@H]2O)c1-c1nc2ccccc2s1` [Example 2013], the EC90 is 0.5 to 5 µM.

Still in this experiment, the particulars now being: Hepatitis C virus, 72 h, HCV replicon cells, replicon RNA level by real time PCR, harvested day 3; read-out: EC90 (μM) range.
For the molecule `Cc1nc(NS(C)(=O)=O)nc(N[C@@H]2C[C@H](CO)[C@@H](O)[C@H]2O)c1-c1nc2ccccc2s1` [Example 1917], the EC90 was above 5 µM.

Consider `Cc1nc(NCC(O)c2ccccc2)nc(N[C@@H]2C[C@H](CO)[C@@H](O)[C@H]2O)c1-c1nc2cnccc2s1` (stereo partly shown) [Example 1918], for which the EC90 is below 0.5 µM.
